Data reported in patent publication US9334289B2, “Cephem compound having catechol or pseudo-catechol structure” (SHIONOGI & CO., LTD., priority 2011, dated 2016).
Read-outs that look alike come from different tables or passages of the source.

What was measured:
Assay in all cases: MIC, CLSI broth microdilution, Test Example 1
Format in all cases: cell-based
[1] = system: K. pneumoniae ATCCBAA-1705; conditions: Klebsiella pneumoniae
Procedure: (§1) Measurement of Minimum Inhibitory Concentration (MIC: μg/mL) was conducted according to CLSI (Clinical and Laboratory Standards Institute) method, and the amount of bacteria for inoculation was 5×10^5 cfu/mL, and cation-adjusted Mueller Hinton broth containing human apo-transferrin was used as a test medium, and the experiment was conducted using broth microdilution method. The bacteria used are listed below.

E. coli ATCCBAA-199 = conditions: Escherichia coli, ATCCBAA199; SHV-3 ESBL producing strain; cation-adjusted Mueller Hinton broth containing human apo-transferrin; 5×10^5 cfu/mL; read-out: Minimum Inhibitory Concentration (MIC) E. coli ATCC BAA-199
Procedure: as §1

A. baumannii SR27323 = conditions: Acinetobacter baumannii
Procedure: as §1

E. coli ATCCBAA-200 = conditions: Escherichia coli, ATCCBAA200; SHV-4 ESBL producing strain; cation-adjusted Mueller Hinton broth containing human apo-transferrin; 5×10^5 cfu/mL; read-out: Minimum Inhibitory Concentration (MIC) E. coli ATCC BAA-200
Procedure: as §1

P. aeruginosa SR24837 = conditions: Pseudomonas aeruginosa
Procedure: as §1

P. aeruginosa SR27060 = conditions: Pseudomonas aeruginosa
Procedure: as §1

P. aeruginosa SR24 = conditions: Pseudomonas aeruginosa
[2] = ATCCBAA1705, KPC-2 carbapenemase producing strain, cation-adjusted Mueller Hinton broth containing human apo-transferrin, 5×10^5 cfu/mL, read-out: Minimum Inhibitory Concentration (MIC) K. pneumoniae ATCCBAA-1705
[3] = SR27323, OXA-23, OXA-58 carbapenemase producing strain, cation-adjusted Mueller Hinton broth containing human apo-transferrin, 5×10^5 cfu/mL, read-out: Minimum Inhibitory Concentration (MIC) A. baumannii SR27323
[4] = SR24837, PER-1 ESBL producing strain, cation-adjusted Mueller Hinton broth containing human apo-transferrin, 5×10^5 cfu/mL, read-out: Minimum Inhibitory Concentration (MIC) P. aeruginosa SR24837
[5] = SR27060, IMP-1 MBL producing strain (carbapenem resistance strain), cation-adjusted Mueller Hinton broth containing human apo-transferrin, 5×10^5 cfu/mL, read-out: Minimum Inhibitory Concentration (MIC) P. aeruginosa SR27060
[6] = SR24, Ceftazidime resistance strain, cation-adjusted Mueller Hinton broth containing human apo-transferrin, 5×10^5 cfu/mL, read-out: Minimum Inhibitory Concentration (MIC) P. aeruginosa SR24

Row | SMILES | MIC [1, 2] [µg/mL] | MIC (E. coli ATCCBAA-199) [µg/mL] | MIC (A. baumannii SR27323; [3]) [µg/mL] | MIC (E. coli ATCCBAA-200) [µg/mL] | MIC (P. aeruginosa SR24837; [4]) [µg/mL] | MIC (P. aeruginosa SR27060; [5]) [µg/mL] | MIC (P. aeruginosa SR24; [6]) [µg/mL] | MIC ([1]; ATCCBAA1705, read-out: Minimum Inhibitory Concentration (MIC) K. pneumoniae ATCCBAA-1705) [µg/mL] | MIC (A. baumannii SR27323; SR27323, read-out: Minimum Inhibitory Concentration (MIC) A. baumannii SR27323) [µg/mL] | MIC (P. aeruginosa SR24837; SR24837, read-out: Minimum Inhibitory Concentration (MIC) P. aeruginosa SR24837) [µg/mL] | MIC (P. aeruginosa SR27060; SR27060, read-out: Minimum Inhibitory Concentration (MIC) P. aeruginosa SR27060) [µg/mL] | MIC (P. aeruginosa SR24; SR24, read-out: Minimum Inhibitory Concentration (MIC) P. aeruginosa SR24) [µg/mL]
1 | CC(C)(O/N=C(\C(=O)N[C@@H]1C(=O)N2C(c3nnn[n-]3)=C(Cn3cc(NC(=O)c4ccc(O)c(O)c4Cl)[n+]4c3CCCC4)CS[C@H]12)c1csc(N)n1)C(=O)[O-].[Na+] [Compound I-16] | ≤ 0.031 | 0.25 | 1 | 0.25 | 1 | 0.25 | 0.125 |  |  |  |  | 
2 | CC(C)(O/N=C(\C(=O)N[C@@H]1C(=O)N2C(c3nnn[n-]3)=C(Cn3cc[n+](CCNC(=O)c4ccc(O)c(O)c4Cl)c3)CS[C@H]12)c1csc(N)n1)C(=O)[O-].[Na+] [Compound I-74] | ≤ 0.031 | 0.063 | 0.5 | 0.125 | 0.5 | 0.25 | 0.125 |  |  |  |  | 
3 | CC(C)(O/N=C(\C(=O)N[C@@H]1C(=O)N2C(c3nnn[n-]3)=C(C[n+]3ccc4cc(O)c(O)cc4c3)CS[C@H]12)c1csc(N)n1)C(=O)[O-].[Na+] [Compound I-77] | ≤ 0.031 | ≤ 0.031 | 0.125 | 0.063 | ≤ 0.031 | 0.25 | ≤ 0.031 |  |  |  |  | 
4 | CC(C)(O/N=C(\C(=O)N[C@@H]1C(=O)N2C(c3nnn[n-]3)=C(C[N+]3(C)[C@@H]4CC[C@H]3C[C@@H](NC(=O)c3ccc(O)c(O)c3Cl)C4)CS[C@H]12)c1csc(N)n1)C(=O)[O-].[Na+] (stereo partly drawn) [Compound I-2] | ≤ 0.031 | 0.5 | 1 | 1 | 0.25 | 1 | 0.25 |  |  |  |  | 
5 | CC(C)(O/N=C(\C(=O)N[C@@H]1C(=O)N2C(c3nnn[n-]3)=C(C[N+]34CCC[C@H]3CN(C(=O)c3cc(O)c(O)c(Cl)c3)CC4)CS[C@H]12)c1csc(N)n1)C(=O)[O-].[Na+] (stereo partly drawn) [Compound I-13] | ≤ 0.031 | 0.5 | 2 | 1 | 2 | 0.5 | 0.125 |  |  |  |  | 
6 | CC(C)(O/N=C(\C(=O)N[C@@H]1C(=O)N2C(c3nn[n-]n3)=C(C[N+]3(Cc4nc(-c5ccc(O)c(O)c5Cl)no4)CCCC3)CS[C@H]12)c1csc(N)n1)C(=O)[O-].[Na+] [Compound I-46] | ≤ 0.031 | 0.125 | 0.5 | 0.5 | 1 | 0.5 | 0.25 |  |  |  |  | 
7 | CC(C)(O/N=C(\C(=O)N[C@@H]1C(=O)N2C(c3nnn[n-]3)=C(C[n+]3ccc(CNC(=O)c4ccc(O)c(O)c4Cl)cc3)CS[C@H]12)c1csc(N)n1)C(=O)[O-].[Na+] [Compound I-71] |  | 0.25 |  | 0.5 |  |  |  | ≤ 0.031 | 1 | 1 | 0.25 | 0.063
8 | CC(C)(O/N=C(\C(=O)N[C@@H]1C(=O)N2C(c3nnn[n-]3)=C(C[N+]3(CCNC(=O)c4ccc(O)c(O)c4Cl)CCCC3)CS[C@H]12)c1csc(N)n1)C(=O)[O-].[Na+] [Compound I-1] | ≤ 0.031 | 0.063 | 0.5 | 0.125 | 0.5 | 0.5 | 0.5 |  |  |  |  | 
9 | CC(C)(O/N=C(\C(=O)N[C@@H]1C(=O)N2C(c3nn[n-]n3)=C(C[N+]3(C)CCC(NC(=O)c4ccc(O)c(O)c4Cl)CC3)CS[C@H]12)c1csc(N)n1)C(=O)[O-].[Na+] (stereo partly drawn) [Compound I-47] | 0.063 | 0.5 | 0.25 | 1 | 0.5 | 1 | 0.125 |  |  |  |  | 
